Assay results: ChEMBL document CHEMBL5058641, “Data for DCP probe TP-050” (2022); call rule not given here

Assays:
[1] = target: T1, Sodium-dependent dopamine transporter (Homo sapiens, UniProt Q01959); assay: GPCRScan assay: inhibition of DAT; set-up: radioligand conc. used [nm] 3.6 – 16.0, parental cells stable HEK
[2] = GPCRScan assay: inhibition of GABA/PBR; set-up: species or system Rattus norvegicus; radioligand conc. used [nm] 0.3 – 2.0, parental cells brain tissue
[3] = AMPA receptor scintillation proximity binding assay; set-up: species or system Homo sapiens
[4] = target: Glutamate receptor ionotropic, NMDA 2B (Homo sapiens, UniProt Q05586+Q13224); assay: GluN2B-containing NMDA receptor (Ca2+ influx) assay (EC50)
[5] = target: Tyrosine-protein kinase Lck (Homo sapiens, UniProt P06239); assay: LCK Eurofins SafetyScreen (Other); set-up: species or system Inhibitor
[6] = target: Sodium channel protein type 5 subunit alpha (Homo sapiens, UniProt Q14524); assay: NAV1.5 Eurofins SafetyScreen (Other); set-up: species or system Blocker
[7] = target: Voltage-dependent L-type calcium channel subunit alpha-1C (Homo sapiens, UniProt Q13936); assay: CAV1.2 Eurofins SafetyScreen (Other); set-up: species or system Blocker
[8] = target: Gamma-aminobutyric acid receptor subunit alpha-1 (Homo sapiens, UniProt P14867); assay: GABAA Eurofins SafetyScreen (Other); set-up: species or system Blocker
[9] = target: Voltage-gated inwardly rectifying potassium channel KCNH2 (Homo sapiens, UniProt Q12809); assay: hERG Eurofins SafetyScreen (Other); set-up: species or system Blocker
[10] = target: Potassium voltage-gated channel subfamily KQT member 1 (Homo sapiens, UniProt P51787); assay: KvLQT1/minK Eurofins SafetyScreen (Other); set-up: species or system Blocker
Acetylcholinesterase = Acetylcholinesterase (Homo sapiens, UniProt P22303); assay: AChE Eurofins SafetyScreen (Other); set-up: species or system Inhibitor
[11] = target: Prostaglandin G/H synthase 2 (Homo sapiens, UniProt P35354); assay: COX2 Eurofins SafetyScreen (Other); set-up: species or system Inhibitor
[12] = target: cGMP-inhibited 3',5'-cyclic phosphodiesterase 3A (Homo sapiens, UniProt Q14432); assay: PDE3A Eurofins SafetyScreen (Other); set-up: species or system Inhibitor
[13] = target: 3',5'-cyclic-AMP phosphodiesterase 4D (Homo sapiens, UniProt Q08499); assay: PDE4D2 Eurofins SafetyScreen (Other); set-up: species or system Inhibitor
[14] = target: T1, Sodium-dependent dopamine transporter; assay: DAT Eurofins SafetyScreen (Other); set-up: species or system Blocker
Vasopressin V1a receptor = Vasopressin V1a receptor (Homo sapiens, UniProt P37288); assay: AVPR1A Eurofins SafetyScan (Receptor)
Chain of Vasopressin V1a receptor (P37288 whole entry): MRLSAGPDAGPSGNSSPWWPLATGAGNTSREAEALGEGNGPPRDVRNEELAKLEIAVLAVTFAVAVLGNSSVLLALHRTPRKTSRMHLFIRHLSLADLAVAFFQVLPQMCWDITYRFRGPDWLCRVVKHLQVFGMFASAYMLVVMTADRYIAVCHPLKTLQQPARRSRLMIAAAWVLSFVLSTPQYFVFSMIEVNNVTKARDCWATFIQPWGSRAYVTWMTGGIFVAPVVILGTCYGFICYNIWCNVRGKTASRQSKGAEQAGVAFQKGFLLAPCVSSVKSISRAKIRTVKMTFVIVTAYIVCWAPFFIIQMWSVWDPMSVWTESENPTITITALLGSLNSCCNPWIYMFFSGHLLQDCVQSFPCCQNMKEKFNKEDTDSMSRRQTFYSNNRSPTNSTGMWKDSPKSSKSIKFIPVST

[15] = target: Muscarinic acetylcholine receptor M1 (Homo sapiens, UniProt P11229); assay: CHRM1 Eurofins SafetyScan (Receptor)
Chain of Muscarinic acetylcholine receptor M1 (P11229 whole entry): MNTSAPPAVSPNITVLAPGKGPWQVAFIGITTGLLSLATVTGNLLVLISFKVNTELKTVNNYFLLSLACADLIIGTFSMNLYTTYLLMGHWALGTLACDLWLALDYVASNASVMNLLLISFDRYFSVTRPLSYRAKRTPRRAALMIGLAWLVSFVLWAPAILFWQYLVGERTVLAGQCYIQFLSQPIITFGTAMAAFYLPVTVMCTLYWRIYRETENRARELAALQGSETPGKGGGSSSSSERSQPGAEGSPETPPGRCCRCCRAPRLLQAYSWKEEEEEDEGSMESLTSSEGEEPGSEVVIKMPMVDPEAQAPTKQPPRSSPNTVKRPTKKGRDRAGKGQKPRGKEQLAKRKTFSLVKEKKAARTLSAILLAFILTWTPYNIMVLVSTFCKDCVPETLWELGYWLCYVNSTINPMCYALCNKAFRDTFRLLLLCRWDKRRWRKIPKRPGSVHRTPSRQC

[16] = target: Alpha-2A adrenergic receptor (Homo sapiens, UniProt P08913); assay: ADRA2A Eurofins SafetyScan (Receptor)
Chain of Alpha-2A adrenergic receptor (P08913 whole entry): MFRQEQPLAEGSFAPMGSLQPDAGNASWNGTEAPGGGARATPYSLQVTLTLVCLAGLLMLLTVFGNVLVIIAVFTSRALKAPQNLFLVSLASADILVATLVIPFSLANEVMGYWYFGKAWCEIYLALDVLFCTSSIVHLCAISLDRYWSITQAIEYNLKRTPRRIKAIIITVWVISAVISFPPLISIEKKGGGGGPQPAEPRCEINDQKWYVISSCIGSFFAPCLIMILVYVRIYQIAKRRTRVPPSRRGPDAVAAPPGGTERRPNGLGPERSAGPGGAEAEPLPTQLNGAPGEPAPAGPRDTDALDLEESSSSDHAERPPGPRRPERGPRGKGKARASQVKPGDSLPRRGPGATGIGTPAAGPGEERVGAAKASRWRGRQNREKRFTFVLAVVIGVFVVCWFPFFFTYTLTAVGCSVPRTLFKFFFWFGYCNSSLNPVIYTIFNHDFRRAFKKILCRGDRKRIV

[17] = target: T2, Muscarinic acetylcholine receptor M3 (Homo sapiens, UniProt P20309); assay: CHRM3 Eurofins SafetyScan (Receptor)
Target sequence in this assay (P20309 whole entry): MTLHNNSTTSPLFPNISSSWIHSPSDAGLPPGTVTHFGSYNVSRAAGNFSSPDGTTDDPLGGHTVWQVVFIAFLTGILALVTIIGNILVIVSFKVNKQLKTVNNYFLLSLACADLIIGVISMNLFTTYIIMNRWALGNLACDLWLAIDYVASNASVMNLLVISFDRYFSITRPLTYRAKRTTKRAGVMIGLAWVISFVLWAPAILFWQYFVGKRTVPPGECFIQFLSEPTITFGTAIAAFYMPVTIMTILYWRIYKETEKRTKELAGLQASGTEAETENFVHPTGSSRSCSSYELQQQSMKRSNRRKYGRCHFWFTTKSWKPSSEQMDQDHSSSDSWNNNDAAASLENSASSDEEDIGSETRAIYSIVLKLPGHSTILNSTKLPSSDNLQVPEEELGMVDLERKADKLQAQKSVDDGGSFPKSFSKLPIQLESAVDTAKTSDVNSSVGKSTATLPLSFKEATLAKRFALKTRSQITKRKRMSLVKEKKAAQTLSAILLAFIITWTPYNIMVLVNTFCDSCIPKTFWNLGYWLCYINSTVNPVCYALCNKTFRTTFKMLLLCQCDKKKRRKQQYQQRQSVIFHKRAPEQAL

D(2) dopamine receptor [18] = target: T3, D(2) dopamine receptor (Homo sapiens, UniProt P14416); assay: DRD2S Eurofins SafetyScan (Receptor)
T3 sequence (P14416 whole entry): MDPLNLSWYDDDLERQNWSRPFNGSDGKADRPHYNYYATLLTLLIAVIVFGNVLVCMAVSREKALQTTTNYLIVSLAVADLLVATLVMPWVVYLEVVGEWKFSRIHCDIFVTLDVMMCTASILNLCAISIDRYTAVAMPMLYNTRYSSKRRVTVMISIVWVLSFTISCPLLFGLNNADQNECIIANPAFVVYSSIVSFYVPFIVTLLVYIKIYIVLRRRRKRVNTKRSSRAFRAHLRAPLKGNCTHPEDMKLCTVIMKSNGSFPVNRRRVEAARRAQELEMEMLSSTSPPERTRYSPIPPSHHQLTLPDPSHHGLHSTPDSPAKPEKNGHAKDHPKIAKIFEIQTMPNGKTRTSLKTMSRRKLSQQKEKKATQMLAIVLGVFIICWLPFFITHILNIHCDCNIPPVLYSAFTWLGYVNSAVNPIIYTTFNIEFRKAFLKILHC

Endothelin-1 receptor = Endothelin-1 receptor (Homo sapiens, UniProt P25101); assay: EDNRA Eurofins SafetyScan (Receptor)
Chain of Endothelin-1 receptor (P25101 whole entry): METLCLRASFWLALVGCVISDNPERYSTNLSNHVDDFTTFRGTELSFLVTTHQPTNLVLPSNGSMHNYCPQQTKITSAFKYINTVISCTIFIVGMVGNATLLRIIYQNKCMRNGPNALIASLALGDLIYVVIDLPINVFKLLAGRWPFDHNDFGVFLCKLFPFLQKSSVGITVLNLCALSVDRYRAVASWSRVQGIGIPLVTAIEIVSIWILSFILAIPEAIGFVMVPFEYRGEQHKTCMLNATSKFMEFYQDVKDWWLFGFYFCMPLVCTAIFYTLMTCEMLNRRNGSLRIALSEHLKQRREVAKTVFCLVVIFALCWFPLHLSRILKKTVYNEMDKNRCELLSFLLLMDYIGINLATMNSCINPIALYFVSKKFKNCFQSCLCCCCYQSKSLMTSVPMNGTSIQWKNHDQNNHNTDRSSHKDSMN

Histamine H2 receptor [19] = target: T4, Histamine H2 receptor (Homo sapiens, UniProt P25021); assay: HRH2 Eurofins SafetyScan (Receptor)
T4 sequence (P25021 whole entry): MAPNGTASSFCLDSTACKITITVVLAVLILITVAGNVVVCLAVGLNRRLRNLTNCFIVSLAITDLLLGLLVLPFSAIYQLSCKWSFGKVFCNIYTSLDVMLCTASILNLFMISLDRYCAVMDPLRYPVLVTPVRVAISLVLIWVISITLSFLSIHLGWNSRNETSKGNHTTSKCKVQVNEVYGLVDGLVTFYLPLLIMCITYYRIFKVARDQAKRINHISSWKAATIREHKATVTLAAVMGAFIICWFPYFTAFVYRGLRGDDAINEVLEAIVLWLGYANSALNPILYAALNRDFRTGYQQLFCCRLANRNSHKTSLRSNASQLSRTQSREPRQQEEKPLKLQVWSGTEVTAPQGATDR

[20] = target: 5-hydroxytryptamine receptor 2A (Homo sapiens, UniProt P28223); assay: HTR2A Eurofins SafetyScan (Receptor)
Chain of 5-hydroxytryptamine receptor 2A (P28223 whole entry): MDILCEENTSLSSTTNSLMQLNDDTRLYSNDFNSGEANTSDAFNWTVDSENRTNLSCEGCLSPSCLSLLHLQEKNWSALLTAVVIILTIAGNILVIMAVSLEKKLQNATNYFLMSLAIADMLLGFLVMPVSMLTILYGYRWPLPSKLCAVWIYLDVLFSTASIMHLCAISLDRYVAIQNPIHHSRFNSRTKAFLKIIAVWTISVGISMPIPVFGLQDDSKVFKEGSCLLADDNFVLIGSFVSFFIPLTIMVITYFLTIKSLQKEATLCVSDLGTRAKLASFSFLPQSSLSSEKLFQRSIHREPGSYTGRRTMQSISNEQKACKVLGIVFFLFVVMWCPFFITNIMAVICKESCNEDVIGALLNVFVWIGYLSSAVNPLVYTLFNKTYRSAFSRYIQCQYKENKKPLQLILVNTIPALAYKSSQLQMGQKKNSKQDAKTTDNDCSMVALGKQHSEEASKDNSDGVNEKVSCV

[21] = target: 5-hydroxytryptamine receptor 2B (Homo sapiens, UniProt P41595); assay: HTR2B Eurofins SafetyScan (Receptor)
Chain of 5-hydroxytryptamine receptor 2B (P41595 whole entry): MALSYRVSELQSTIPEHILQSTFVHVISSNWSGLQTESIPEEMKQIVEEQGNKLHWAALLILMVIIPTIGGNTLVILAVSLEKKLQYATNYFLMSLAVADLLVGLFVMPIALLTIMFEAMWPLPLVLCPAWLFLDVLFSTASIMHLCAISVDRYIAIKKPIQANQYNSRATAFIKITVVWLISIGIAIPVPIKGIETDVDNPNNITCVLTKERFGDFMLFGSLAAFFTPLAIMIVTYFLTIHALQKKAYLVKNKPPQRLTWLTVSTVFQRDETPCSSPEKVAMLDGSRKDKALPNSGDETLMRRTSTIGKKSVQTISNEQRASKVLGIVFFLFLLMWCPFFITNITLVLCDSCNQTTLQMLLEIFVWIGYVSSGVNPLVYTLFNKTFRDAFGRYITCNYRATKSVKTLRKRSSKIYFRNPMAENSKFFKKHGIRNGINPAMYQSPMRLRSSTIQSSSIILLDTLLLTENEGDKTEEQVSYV

Androgen receptor = Androgen receptor (Homo sapiens, UniProt P10275); assay: AR Eurofins SafetyScan (Receptor)
[22] = target: 5-hydroxytryptamine receptor 1A (Homo sapiens) (UniProt P08908); details: Compound concentration 10.0 uM
[23] = target: 5-hydroxytryptamine receptor 1D (Homo sapiens, UniProt P28221); details: Compound concentration 10.0 uM
[24] = target: 5-hydroxytryptamine receptor 1E (Homo sapiens) (UniProt P28566); details: Compound concentration 10.0 uM
[25] = target: 5-hydroxytryptamine receptor 2C (Homo sapiens) (UniProt P28335); details: Compound concentration 10.0 uM
[26] = target: 5-hydroxytryptamine receptor 3A (Homo sapiens) (UniProt P46098); details: Compound concentration 10.0 uM
[27] = target: 5-hydroxytryptamine receptor 6 (Homo sapiens) (UniProt P50406); details: Compound concentration 10.0 uM
D(1A) dopamine receptor = D(1A) dopamine receptor (Homo sapiens, UniProt P21728); details: Compound concentration 10.0 uM
D(2) dopamine receptor [28] = target: T3, D(2) dopamine receptor; details: Compound concentration 10.0 uM
[29] = target: D(3) dopamine receptor (Homo sapiens) (UniProt P35462); details: Compound concentration 10.0 uM
[30] = target: D(4) dopamine receptor (Homo sapiens) (UniProt P21917); details: Compound concentration 10.0 uM
[31] = target: T1, Sodium-dependent dopamine transporter; details: Compound concentration 10.0 uM
[32] = target: Delta-type opioid receptor (Homo sapiens, UniProt P41143); details: Compound concentration 10.0 uM
Histamine H2 receptor [33] = target: T4, Histamine H2 receptor; details: Compound concentration 10.0 uM
[34] = target: Alpha-2A adrenergic receptor (Homo sapiens) (UniProt P08913); details: Compound concentration 10.0 uM
Chain of Alpha-2A adrenergic receptor (Homo sapiens) (P08913 whole entry): as the sequence (P08913 whole entry) above

[35] = target: Alpha-2B adrenergic receptor (Homo sapiens) (UniProt P18089); details: Compound concentration 10.0 uM
[36] = target: Beta-1 adrenergic receptor (Homo sapiens, UniProt P08588); details: Compound concentration 10.0 uM
[37] = target: Muscarinic acetylcholine receptor M1 (Homo sapiens) (UniProt P11229); details: Compound concentration 10.0 uM
Chain of Muscarinic acetylcholine receptor M1 (Homo sapiens) (P11229 whole entry): as the sequence (P11229 whole entry) above

[38] = target: T2, Muscarinic acetylcholine receptor M3; details: Compound concentration 10.0 uM
Target sequence in this assay (P20309 whole entry, looked up): as the sequence (P20309 whole entry) above

[39] = target: Muscarinic acetylcholine receptor M5 (Homo sapiens) (UniProt P08912); details: Compound concentration 10.0 uM
Rattus norvegicus = organism: Rattus norvegicus; details: Compound concentration 10.0 uM
[40] = target: Alpha-1D adrenergic receptor (Homo sapiens) (UniProt P25100); details: Compound concentration 10.0 uM
[41] = target: Sigma intracellular receptor 2 (Homo sapiens) (UniProt Q5BJF2); details: Compound concentration 10.0 uM

T1 sequence (Q01959 whole entry): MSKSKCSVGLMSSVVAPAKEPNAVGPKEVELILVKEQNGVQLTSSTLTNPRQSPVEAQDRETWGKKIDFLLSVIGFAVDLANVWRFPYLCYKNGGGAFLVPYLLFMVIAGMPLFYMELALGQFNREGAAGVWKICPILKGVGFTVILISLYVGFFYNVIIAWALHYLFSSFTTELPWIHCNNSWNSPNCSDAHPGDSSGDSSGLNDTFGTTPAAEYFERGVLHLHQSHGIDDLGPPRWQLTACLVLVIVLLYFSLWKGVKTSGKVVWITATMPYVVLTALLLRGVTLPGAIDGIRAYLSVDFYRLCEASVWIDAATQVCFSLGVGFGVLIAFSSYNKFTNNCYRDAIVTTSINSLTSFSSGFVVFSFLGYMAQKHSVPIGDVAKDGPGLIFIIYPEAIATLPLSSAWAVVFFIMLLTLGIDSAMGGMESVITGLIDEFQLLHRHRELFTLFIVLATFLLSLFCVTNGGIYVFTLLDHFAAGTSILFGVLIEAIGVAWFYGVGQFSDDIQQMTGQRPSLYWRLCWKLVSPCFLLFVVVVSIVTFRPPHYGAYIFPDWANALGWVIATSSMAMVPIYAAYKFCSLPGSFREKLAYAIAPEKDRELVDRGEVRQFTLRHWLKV

Cc1cn([C@H](C)CC#N)c(=O)c2cc(Cn3nc(C(F)F)cc3Cl)nn12
Ki ([1]; read-out: Ki): 9.53 µM | Ki ([1]; read-out: pKi (converted)): 9.55 µM | Ki [2]: 0.336 µM | pKi [2]: 6.47 | IC50 [3]: > 30 µM (not active) | EC50 [4]: > 30 µM (not active) | IC50 [5]: > 10 µM | IC50 [6]: > 10 µM | IC50 [7]: > 10 µM | IC50 [8]: > 10 µM | IC50 [9]: > 10 µM | IC50 [10]: > 10 µM | IC50 (Acetylcholinesterase): > 10 µM | IC50 [11]: > 10 µM | IC50 [12]: 7.9 µM | IC50 [13]: > 10 µM | IC50 [14]: > 10 µM | EC50 (Vasopressin V1a receptor): > 10 µM | IC50 (Vasopressin V1a receptor): > 10 µM | EC50 [15]: > 10 µM | IC50 [15]: > 10 µM | EC50 [16]: > 10 µM | IC50 [16]: > 10 µM | EC50 [17]: > 10 µM | IC50 [17]: > 10 µM | EC50 (D(2) dopamine receptor [18]): > 10 µM | IC50 (D(2) dopamine receptor [18]): > 10 µM | EC50 (Endothelin-1 receptor): > 10 µM | IC50 (Endothelin-1 receptor): > 10 µM | EC50 (Histamine H2 receptor [19]): > 10 µM | IC50 (Histamine H2 receptor [19]): > 10 µM | EC50 [20]: > 10 µM | IC50 [20]: > 10 µM | EC50 [21]: > 10 µM | IC50 [21]: > 10 µM | EC50 (Androgen receptor): > 10 µM | IC50 (Androgen receptor): > 10 µM | inhibition [22]: -5.4% | inhibition [23]: 90.8% | inhibition [24]: 6.65% | inhibition [25]: 13.1% | inhibition [26]: 0.11% | inhibition [27]: 8.34% | inhibition (D(1A) dopamine receptor): 1.34% | inhibition (D(2) dopamine receptor [28]): 9.18% | inhibition [29]: 33% | inhibition [30]: 48.5% | inhibition [31]: 54.8% | inhibition [32]: -4.95% | inhibition (Histamine H2 receptor [33]): 3.64% | inhibition [34]: 15.9% | inhibition [35]: 6.16% | inhibition [36]: 4.09% | inhibition [37]: 12.5% | inhibition [38]: 11.9% | inhibition [39]: 17.9% | inhibition (Rattus norvegicus): 83.2% | inhibition [40]: 10.6% | inhibition [41]: 10.9%
